Values of other authors as cited in patent US20250032638A1, “Novel Cancer Treatments with TLR7/8 Agonists” (Ascendis Pharma Oncology Division A/S, priority 2021, published 2025).

Settings: resiquimod administered orally; systemic toxicity at higher doses (Journal of Hepatology 47 (2007) 174-182)

Q: For CCOCc1nc2c(N)nc3ccccc3c2n1CC(C)(C)O [resiquimod], which “systemic concentration that was well tolerated” value is on record?
A: about 4 ng/mL
